Reference: US20240317744A1, “Bicyclic Ureas As Kinase Inhibitors” (Incyte Corporation, priority 2023, published 2024)

What was measured:
[1] = target: T1, catalytic domain (JH1, amino acids 826-1132) of human JAK2 (Homo sapiens, UniProt O60674); test: JAK2 LanthaScreen JH1 Binding Assay; conditions: JAK2 JH1 1.5 nM, 50 nM tracer, 2 hours at 25° C.; read-out: JH1 BIND
T1 construct: catalytic domain (JH1, amino acids 826-1132) of human JAK2; FLAG (N); biotin (biotinylated); purchased Carna Biosciences 08-445-20N; host or cells: baculovirus expression system
Experimental: Example A. JAK2 LanthaScreen JH1 Binding Assay
JAK2 JH1 binding assay utilizes catalytic domain (JH1, amino acids 826-1132) of human JAK2 expressed as N-terminal FLAG-tagged, biotinylated protein in a baculovirus expression system (Carna Biosciences, Product #08-445-20N). The assay was conducted in black 384-well polystyrene plates in a final reaction volume of 20 μL. JAK2 JH1 (1.5 nM) was incubated with compounds (100 nL serially diluted in DMSO) in the presence of 50 nM fluorescent JAK2-JH1 tracer and 0.5 nM Streptavidin-Tb cryptate (Cisbio Part #610SATLB) in assay buffer (50 mM Tris, pH=7.5, 10 mM MgCl2, 0.01% Brij-35, 0.1% BSA, 1 mM EGTA, 5% Glycerol and 5 mM DTT). Non-specific binding was accessed in the presence of 2 mM ATP. After incubation for 2 hours at 25° C., LanthaScreen signals were read on a PHERAstar FS plate reader (BMG LABTECH). Data was analyzed with IDBS XLfit and GraphPad Prism 5.0 software using a four parameter dose response curve to determine IC50 for each compound.

[2] = target: T2, pseudo-kinase domain (JH2, amino-acids 536-812) of human Wild Type JAK2 (Homo sapiens, UniProt O60674, F794H/W659A/W777A); test: JAK2 LanthaScreen JH2-WT Binding Assay; conditions: JAK2 JH2-WT 0.145 nM, 50 nM tracer, 1 hour at 25° C.; read-out: JH2 BIND WT
T2 construct: pseudo-kinase domain (JH2, amino-acids 536-812 with 3 surface mutations W659A, W777A, F794H); His (C); purchased BPS Bioscience 79463; host or cells: baculovirus expression system
Experimental: Example B. JAK2 LanthaScreen JH2-WT Binding Assay
JAK2 JH2-WT binding assay utilizes pseudo-kinase domain (JH2, amino-acids 536-812 with 3 surface mutations W659A, W777A, F794H) of human Wild Type JAK2 expressed as C-terminal His-Avi-tagged, biotinylated protein in a baculovirus expression system (BPS Bioscience, Catalog #79463). The assay was conducted in black 384-well polystyrene plates in a final reaction volume of 20 μL. JAK2 JH2-WT (0.145 nM) was incubated with compounds (100 nL serially diluted in DMSO) in the presence of 50 nM Fluorescent JAK2-JH2 Tracer (MedChem Express Catalog #HY-102055) and 0.25 nM Streptavidin-Tb cryptate (Cisbio Part #610SATLB) in assay buffer (50 mM Tris, pH=7.5, 10 mM MgCl2, 0.01% Brij-35, 0.1% BSA, 1 mM EGTA, 5% Glycerol and 5 mM DTT). Non-specific binding was accessed in the presence of 2 mM ATP. After incubation for 1 hour at 25° C., LanthaScreen signals were read on a PHERAstar FS plate reader (BMG LABTECH). Data was analyzed with IDBS XLfit and GraphPad Prism 5.0 software using a four parameter dose response curve to determine IC50 for each compound.

[3] = target: T3, pseudo-kinase domain (JH2, amino-acids 536-812) of human V617F mutant JAK2 (Homo sapiens, UniProt O60674, F794H/V617F/W659A/W777A); test: JAK2 LanthaScreen JH2-V617F Binding Assay; conditions: JAK2 JH2-V617F 0.26 nM, 50 nM tracer, 1 hour at 25° C.; read-out: JH2 BIND V617F
T3 construct: pseudo-kinase domain (JH2, amino-acids 536-812 with 3 surface mutations W659A, W777A, F794H); His (C); purchased BPS Bioscience 79498; host or cells: baculovirus expression system
Procedure, shortened: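 Biotinylated His-Avi-tagged construct, baculovirus-expressed, at 0.26 nM; compounds competed against 50 nM fluorescent JH2 tracer with 0.25 nM streptavidin-Tb in Tris pH 7.5 buffer. Non-specific binding defined with 2 mM ATP. Read after 1 h at 25° C by TR-FRET; IC50 from four-parameter fit.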

[4] = target: catalytic domain (JH1, amino acids 808-1132) of human JAK2 (Homo sapiens, UniProt O60674); test: JAK2 HTRF Enzyme Activity Assay; assay type: biochemical; conditions: ATP 30 µM, 60 minutes at 25° C.; read-out: V617F ENZ 30 UM
Chain of catalytic domain (JH1, amino acids 808-1132) of human JAK2 (O60674 808-1132 limits assumed): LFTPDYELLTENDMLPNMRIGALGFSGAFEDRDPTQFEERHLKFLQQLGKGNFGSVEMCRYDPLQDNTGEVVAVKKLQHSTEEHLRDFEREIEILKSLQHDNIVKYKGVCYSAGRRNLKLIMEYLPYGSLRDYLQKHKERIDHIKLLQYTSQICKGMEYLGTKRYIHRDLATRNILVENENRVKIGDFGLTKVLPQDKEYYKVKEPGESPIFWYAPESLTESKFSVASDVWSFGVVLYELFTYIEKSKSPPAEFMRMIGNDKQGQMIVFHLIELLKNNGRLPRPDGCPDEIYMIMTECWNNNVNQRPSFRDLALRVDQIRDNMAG

T1 sequence (O60674 826-1132): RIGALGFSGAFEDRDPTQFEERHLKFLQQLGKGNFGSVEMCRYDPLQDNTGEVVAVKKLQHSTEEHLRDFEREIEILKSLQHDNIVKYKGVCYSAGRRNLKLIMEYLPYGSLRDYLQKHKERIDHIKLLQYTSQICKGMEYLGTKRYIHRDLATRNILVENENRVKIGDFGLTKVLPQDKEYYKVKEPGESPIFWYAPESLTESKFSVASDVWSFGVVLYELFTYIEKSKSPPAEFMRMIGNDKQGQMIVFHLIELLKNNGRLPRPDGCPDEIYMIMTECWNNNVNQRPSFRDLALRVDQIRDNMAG
T3 sequence (O60674 536-812 V617F/W659A/W777A/F794H): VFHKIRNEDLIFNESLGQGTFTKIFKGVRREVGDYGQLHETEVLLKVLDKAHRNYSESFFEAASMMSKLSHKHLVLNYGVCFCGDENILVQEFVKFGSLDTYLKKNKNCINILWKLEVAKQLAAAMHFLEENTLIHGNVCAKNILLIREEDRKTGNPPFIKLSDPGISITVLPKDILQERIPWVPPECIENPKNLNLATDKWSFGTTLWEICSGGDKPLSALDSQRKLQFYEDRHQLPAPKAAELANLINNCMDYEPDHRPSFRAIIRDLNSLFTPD
T2 sequence (O60674 536-812 W659A/W777A/F794H): as the sequence (O60674 536-812 V617F/W659A/W777A/F794H) above, with F82V counted along it

Row | SMILES | IC50 [1] | IC50 [2] | IC50 [3] | IC50 [4]
1 | CCOC(=O)NC1CC2(C1)CC(n1c(=O)n(C)c3cnc(Nc4cc(NC(=O)OC)cc(-c5cnn(C)c5)c4)cc31)C2 (centres unmarked) [Example 25, Methyl (3-((1-(6-((ethoxycarbonyl)amino)spiro[3.3]heptan-2-yl)-3-methyl-2-oxo-2,3-dihydro-1H-imidazo[4,5-c]pyridin-6-yl)amino)-5-(1-methyl-1H-pyrazol-4-yl)phenyl)carbamate] | > 1 µM | 0.01 to 0.1 µM | 0.1 to 0.5 µM | > 1 µM
2 | COC(=O)Nc1cc(Nc2cc3c(cn2)n(C)c(=O)n3C2CC3(CC(NS(=O)(=O)C4CC4)C3)C2)cc(-c2cnn(C)c2)c1 (centres unmarked) [Example 26, Methyl (3-((1-(6-(cyclopropanesulfonamido)spiro[3.3]heptan-2-yl)-3-methyl-2-oxo-2,3-dihydro-1H-imidazo[4,5-c]pyridin-6-yl)amino)-5-(1-methyl-1H-pyrazol-4-yl)phenyl)carbamate] | > 1 µM | 0.01 to 0.1 µM | 0.01 to 0.1 µM | > 1 µM
3 | COC(=O)Nc1cc(Nc2cc3c(cn2)n(C)c(=O)n3C2CC3(C2)CN(C(=O)OC)C3)cc(-c2cnn(C)c2)c1 [Example 27, Methyl 6-(6-((3-((methoxycarbonyl)amino)-5-(1-methyl-1H-pyrazol-4-yl)phenyl)amino)-3-methyl-2-oxo-2,3-dihydro-1H-imidazo[4,5-c]pyridin-1-yl)-2-azaspiro[3.3]heptane-2-carboxylate] | > 1 µM | 0.1 to 0.5 µM | 0.1 to 0.5 µM | > 1 µM
4 | COC(=O)Nc1cc(Nc2cc3c(cn2)n(C)c(=O)n3[C@H]2C[C@H](C#N)C2)cc(-c2cnn(C)c2)c1 [Example 28, Methyl (3-((1-((1r,3r)-3-cyanocyclobutyl)-3-methyl-2-oxo-2,3-dihydro-1H-imidazo[4,5-c]pyridin-6-yl)amino)-5-(1-methyl-1H-pyrazol-4-yl)phenyl)carbamate] | > 1 µM | 0.01 to 0.1 µM | 0.1 to 0.5 µM | > 1 µM
5 | COC(=O)Nc1cc(Nc2cc3c(cn2)n(C)c(=O)n3[C@H]2C[C@](C)(NC(=O)OC)C2)cc(-c2cnn(C)c2)c1 [Example 29, Methyl (3-((1-((1r,3r)-3-((methoxycarbonyl)amino)-3-methylcyclobutyl)-3-methyl-2-oxo-2,3-dihydro-1H-imidazo[4,5-c]pyridin-6-yl)amino)-5-(1-methyl-1H-pyrazol-4-yl)phenyl)carbamate] | > 1 µM | 0.1 to 0.5 µM | 0.1 to 0.5 µM | > 1 µM
6 | COC(=O)Nc1cc(Nc2cc3c(cn2)n(C)c(=O)n3[C@@H]2CCC(F)(F)C2)cc(-c2cnn(C)c2)c1 [Example 30, Methyl (R)-(3-((1-(3,3-difluorocyclopentyl)-3-methyl-2-oxo-2,3-dihydro-1H-imidazo[4,5-c]pyridin-6-yl)amino)-5-(1-methyl-1H-pyrazol-4-yl)phenyl)carbamate] | > 1 µM | 0.01 to 0.1 µM | 0.1 to 0.5 µM | > 1 µM
7 | COC(=O)Nc1cc(Nc2cc3c(cn2)n(C)c(=O)n3[C@@H]2CC[C@H](F)C2)cc(-c2cnn(C)c2)c1 [Example 31, Methyl (3-((1-((1R,3S)-3-fluorocyclopentyl)-3-methyl-2-oxo-2,3-dihydro-1H-imidazo[4,5-c]pyridin-6-yl)amino)-5-(1-methyl-1H-pyrazol-4-yl)phenyl)carbamate] | > 1 µM | 0.01 to 0.1 µM | 0.01 to 0.1 µM | > 1 µM
8 | COC(=O)N[C@@H]1CC[C@@H](n2c(=O)n(C)c3cnc(Nc4ccc5cc(-c6cnn(C)c6)ccc5n4)cc32)C1 [Example 32, Methyl ((1R,3R)-3-(3-methyl-6-((6-(1-methyl-1H-pyrazol-4-yl)quinolin-2-yl)amino)-2-oxo-2,3-dihydro-1H-imidazo[4,5-c]pyridin-1-yl)cyclopentyl)carbamate] | > 1 µM | 0.1 to 0.5 µM | 0.1 to 0.5 µM | > 1 µM
9 | COC(=O)N[C@@H]1CC[C@@H](n2c(=O)n(C)c3cnc(Nc4ccc5cccc(-c6cnn(C)c6)c5n4)cc32)C1 [Example 33, Methyl ((1R,3R)-3-(3-methyl-6-((8-(1-methyl-1H-pyrazol-4-yl)quinolin-2-yl)amino)-2-oxo-2,3-dihydro-1H-imidazo[4,5-c]pyridin-1-yl)cyclopentyl)carbamate] | > 1 µM | 0.01 to 0.1 µM | 0.01 to 0.1 µM | > 1 µM
10 | COC(=O)N[C@@H]1CC[C@@H](n2c(=O)n(C)c3cnc(Nc4ccc5ncc(-c6cnn(C)c6)n5n4)cc32)C1 [Example 34, Methyl ((1R,3R)-3-(3-methyl-6-((3-(1-methyl-1H-pyrazol-4-yl)imidazo[1,2-b]pyridazin-6-yl)amino)-2-oxo-2,3-dihydro-1H-imidazo[4,5-c]pyridin-1-yl)cyclopentyl)carbamate] | > 1 µM | ≤ 0.01 µM | ≤ 0.01 µM | > 1 µM
11 | COC(=O)N[C@@H]1CC[C@@H](n2c(=O)n(C)c3cnc(Nc4ccn5nc(-c6cnn(C)c6)cc5n4)cc32)C1 [Example 35, Methyl ((1R,3R)-3-(3-methyl-6-((2-(1-methyl-1H-pyrazol-4-yl)pyrazolo[1,5-a]pyrimidin-5-yl)amino)-2-oxo-2,3-dihydro-1H-imidazo[4,5-c]pyridin-1-yl)cyclopentyl)carbamate] | > 1 µM | 0.01 to 0.1 µM | 0.01 to 0.1 µM | > 1 µM
12 | COC(=O)N[C@@H]1CC[C@@H](n2c(=O)n(C)c3cnc(Nc4ccn5ncc(-c6cnn(C)c6)c5n4)cc32)C1 [Example 36, Methyl ((1R,3R)-3-(3-methyl-6-((3-(1-methyl-1H-pyrazol-4-yl)pyrazolo[1,5-a]pyrimidin-5-yl)amino)-2-oxo-2,3-dihydro-1H-imidazo[4,5-c]pyridin-1-yl)cyclopentyl)carbamate] | > 1 µM | ≤ 0.01 µM | 0.01 to 0.1 µM | > 1 µM
13 | COC(=O)N[C@@H]1CC[C@@H](n2c(=O)n(C)c3cnc(Nc4cccc(OC5CCOCC5)n4)cc32)C1 [Example 37, Methyl ((1R,3R)-3-(3-methyl-2-oxo-6-((6-((tetrahydro-2H-pyran-4-yl)oxy)pyridin-2-yl)amino)-2,3-dihydro-1H-imidazo[4,5-c]pyridin-1-yl)cyclopentyl)carbamate] | > 1 µM | ≤ 0.01 µM | 0.01 to 0.1 µM | > 1 µM
14 | COC(=O)N[C@@H]1CC[C@@H](n2c(=O)n(C)c3cnc(Nc4ccc5ncc(-c6cncn6C)n5n4)cc32)C1 [Example 38, Methyl ((1R,3R)-3-(3-methyl-6-((3-(1-methyl-1H-imidazol-5-yl)imidazo[1,2-b]pyridazin-6-yl)amino)-2-oxo-2,3-dihydro-1H-imidazo[4,5-c]pyridin-1-yl)cyclopentyl)carbamate] | > 1 µM | ≤ 0.01 µM | 0.01 to 0.1 µM | > 1 µM
